Data: patent EP4810052A2, “HCRHR2 SELECTIVE POLYPEPTIDES” (Gubra A/S, priority 2023, dated 2026)
Where two headings read alike, the source gives them in different places. Starred links: 1 amine or outer side, 2 acyl side, 3 side chain; linkers in the order of their positions; H or OH if unused. Non-standard residues stand in square brackets, D forms with d. Residues, ends and D or L forms follow the SMILES beside them. Groups on a side chain read outwards from the residue. *: point of attachment. C20 diacid = O=C(O)CCCCCCCCCCCCCCCCCCC(=O)*; γGlu = O=C(O)[C@H](CCC(=O)[*:2])N[*:1]; NMeI = CC[C@H](C)[C@H](NC)C(=O)O; Nle = CCCC[C@H](N)C(=O)O; AEEA = NCCOCCOCC(=O)O; Aib = CC(C)(N)C(=O)O

What was measured:
hCRHR2 = biological target: T1, hCRHR2 (Homo sapiens, UniProt Q13324); assay: HTRF cAMP assay, determination of hCRHR2 potency (peptide libraries 5 conc., purified peptides 11 conc.); type: cell-based
T1 sequence (Q13324 1-411): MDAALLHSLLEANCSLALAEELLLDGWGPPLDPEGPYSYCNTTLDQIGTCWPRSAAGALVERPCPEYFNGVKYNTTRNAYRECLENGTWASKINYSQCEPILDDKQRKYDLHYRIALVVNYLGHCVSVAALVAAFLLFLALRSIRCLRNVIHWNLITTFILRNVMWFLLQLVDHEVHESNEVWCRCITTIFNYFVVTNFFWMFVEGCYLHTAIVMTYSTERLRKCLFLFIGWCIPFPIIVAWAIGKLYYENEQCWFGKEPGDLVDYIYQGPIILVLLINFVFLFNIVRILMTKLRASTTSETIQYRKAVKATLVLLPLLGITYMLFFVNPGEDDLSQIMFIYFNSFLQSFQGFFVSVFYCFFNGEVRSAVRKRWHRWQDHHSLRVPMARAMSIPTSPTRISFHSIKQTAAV
Procedure, shortened: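 EC50 derived by variable-slope sigmoid regression of FRET-based cAMP data; cellular cAMP displaced d2-labelled tracer from cryptate anti-cAMP antibody. Stable human CRHR2 CHO-K1 suspension cells, revived from frozen stocks just before the run.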

hCRHR1 = biological target: T2, hCRHR1 (Homo sapiens, UniProt P34998); assay: HTRF cAMP assay, determination of hCRHR1 potency (peptide libraries 5 conc., purified peptides 11 conc.); type: cell-based
T2 sequence (P34998 24-415): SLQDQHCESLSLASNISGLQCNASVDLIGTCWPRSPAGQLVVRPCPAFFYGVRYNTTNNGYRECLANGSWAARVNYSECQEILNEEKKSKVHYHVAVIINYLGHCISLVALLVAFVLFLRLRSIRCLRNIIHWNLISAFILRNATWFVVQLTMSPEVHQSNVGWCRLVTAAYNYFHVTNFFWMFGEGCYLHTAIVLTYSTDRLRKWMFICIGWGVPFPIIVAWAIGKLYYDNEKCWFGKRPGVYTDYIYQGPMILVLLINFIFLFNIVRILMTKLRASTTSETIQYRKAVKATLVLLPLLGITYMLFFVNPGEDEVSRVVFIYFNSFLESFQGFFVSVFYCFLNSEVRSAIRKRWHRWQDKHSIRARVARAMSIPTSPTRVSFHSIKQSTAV
Procedure, shortened: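 Cellular cAMP was read by time-resolved FRET between d2-labelled cAMP and cryptate anti-cAMP antibody. The cells were freshly thawed suspension CHO-K1 cells stably expressing human CRHR1.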

[1] = Table 3, matched molecular pairs X^38 L vs Nle, peptide library of Example 4, read-out: hCRHR2 pEC50 (converted)
[2] = Table 3, matched molecular pairs X^38 L vs Nle, peptide library of Example 4, read-out: hCRHR1 pEC50 (converted)
[3] = library peptides, matched molecular pairs L vs Nle in position X^38, read-out: Potency hCRHR2 pEC50 (converted)
[4] = library peptides, matched molecular pairs L vs Nle in position X^38, read-out: Potency hCRHR1 pEC50 (converted)

`CCCC[C@H](NC(=O)[C@@H](NC(=O)[C@H](CCC(=O)O)NC(=O)[C@H](C)NC(=O)[C@H](CC(N)=O)NC(=O)[C@@H](NC(=O)[C@H](CCCCNC(=O)COCCOCCNC(=O)COCCOCCNC(=O)CC[C@H](NC(=O)CC[C@H](NC(=O)CCCCCCCCCCCCCCCCCCC(=O)O)C(=O)O)C(=O)O)NC(=O)[C@H](C)NC(=O)[C@H](CCC(N)=O)NC(=O)[C@H](CCC(=O)O)NC(=O)[C@H](CCCNC(=N)N)NC(=O)[C@H](C)NC(=O)[C@H](CO)NC(=O)[C@H](CCC(=O)O)NC(=O)[C@H](C)NC(=O)[C@H](CCCNC(=N)N)NC(=O)[C@H](C)NC(=O)[C@H](CCC(N)=O)NC(=O)[C@H](CCC(=O)O)NC(=O)[C@H](CC(C)C)NC(=O)[C@H](CC(C)C)NC(=O)[C@@H](NC(=O)[C@H](CCC(N)=O)NC(=O)[C@H](CC(C)C)NC(=O)[C@H](CC(C)C)NC(=O)CNC(=O)[C@@H](NC(=O)[C@@H]1CCCN1C(=O)[C@@H](NC(=O)[C@H](CC(=O)O)NC(=O)[C@H](CC(C)C)NC(=O)[C@H](CO)NC(=O)[C@H](CC(C)C)NC(=O)[C@@H](NC(=O)[C@@H](N)[C@@H](C)CC)C(C)C)C(C)C)[C@@H](C)CC)[C@@H](C)CC)[C@@H](C)O)[C@@H](C)CC)C(=O)N[C@@H](C)C(=O)N[C@@H](CCC(=O)O)C(=O)N[C@H](C(N)=O)C(C)C` [SEQ ID NO: 42] (H-IVLSLDVPIGLLQILLEQARAESAREQAK([AEEA-AEEA-γGlu-γGlu-C20 diacid])TNAEI[Nle]AEV-NH2) gave an EC50 (hCRHR2; [1]) of 0.2 nM and an EC50 (hCRHR1; [2]) of 251 nM.

`CCCC[C@H](NC(=O)[C@@H](NC(=O)[C@H](CCC(=O)O)NC(=O)C(C)(C)NC(=O)[C@H](CC(N)=O)NC(=O)[C@@H](NC(=O)[C@H](CCCCNC(=O)COCCOCCNC(=O)COCCOCCNC(=O)CC[C@H](NC(=O)CC[C@H](NC(=O)CCCCCCCCCCCCCCCCCCC(=O)O)C(=O)O)C(=O)O)NC(=O)[C@H](C)NC(=O)[C@H](CCC(N)=O)NC(=O)[C@H](CCC(=O)O)NC(=O)[C@H](CCCNC(=N)N)NC(=O)[C@H](C)NC(=O)[C@H](C)NC(=O)[C@H](CCCNC(=N)N)NC(=O)[C@H](C)NC(=O)[C@H](CCCNC(=N)N)NC(=O)[C@H](C)NC(=O)[C@H](CCC(N)=O)NC(=O)CNC(=O)[C@H](CC(C)C)NC(=O)[C@H](CC(C)C)NC(=O)[C@@H](NC(=O)[C@H](CCC(N)=O)NC(=O)[C@H](CC(C)C)NC(=O)[C@H](CC(C)C)NC(=O)CNC(=O)[C@@H](NC(=O)[C@@H]1CCCN1C(=O)[C@@H](NC(=O)[C@H](CC(=O)O)NC(=O)[C@H](CC(C)C)NC(=O)[C@H](CO)NC(=O)[C@H](CC(C)C)NC(=O)[C@@H](NC(=O)[C@@H](NC)[C@@H](C)CC)C(C)C)C(C)C)[C@@H](C)CC)[C@@H](C)CC)[C@@H](C)O)[C@@H](C)CC)C(=O)N[C@@H](C)C(=O)N[C@@H](CCC(=O)O)C(=O)N[C@H](C(N)=O)C(C)C` [compound 204] (H-[NMeI]VLSLDVPIGLLQILLGQARARAAREQAK([AEEA-AEEA-γGlu-γGlu-C20 diacid])TN[Aib]EI[Nle]AEV-NH2) was tested, and the EC50 (hCRHR2; Table 4, library peptides having X^38 = Nle, read-out: hCRHR2 pEC50 (converted)) was 0.0251 nM and the EC50 (hCRHR1; Table 4, library peptides having X^38 = Nle, read-out: hCRHR1 pEC50 (converted)) was 1000 nM.

Molecule `CCCC[C@H](NC(=O)[C@@H](NC(=O)[C@H](CCC(=O)O)NC(=O)[C@H](C)NC(=O)[C@H](CC(N)=O)NC(=O)[C@@H](NC(=O)[C@H](CCCCNC(=O)COCCOCCNC(=O)COCCOCCNC(=O)CC[C@H](NC(=O)CC[C@H](NC(=O)CCCCCCCCCCCCCCCCCCC(=O)O)C(=O)O)C(=O)O)NC(=O)[C@H](C)NC(=O)[C@H](CCCNC(=N)N)NC(=O)[C@H](CCC(=O)O)NC(=O)[C@H](CCCNC(=N)N)NC(=O)[C@H](C)NC(=O)[C@H](CO)NC(=O)[C@H](CCC(=O)O)NC(=O)[C@H](C)NC(=O)[C@H](CCCNC(=N)N)NC(=O)[C@H](C)NC(=O)[C@H](CCC(N)=O)NC(=O)[C@H](CCC(=O)O)NC(=O)[C@H](CC(C)C)NC(=O)[C@H](CC(C)C)NC(=O)[C@@H](NC(=O)[C@H](CCC(N)=O)NC(=O)[C@H](CC(C)C)NC(=O)[C@H](CC(C)C)NC(=O)CNC(=O)[C@@H](NC(=O)[C@@H]1CCCN1C(=O)[C@@H](NC(=O)[C@H](CC(=O)O)NC(=O)[C@H](CC(C)C)NC(=O)[C@H](CO)NC(=O)[C@H](CC(C)C)NC(=O)[C@@H](NC(=O)[C@@H](N)[C@@H](C)CC)C(C)C)C(C)C)[C@@H](C)CC)[C@@H](C)CC)[C@@H](C)O)[C@@H](C)CC)C(=O)N[C@@H](C)C(=O)N[C@@H](CCC(=O)O)C(=O)N[C@H](C(N)=O)[C@@H](C)CC` [SEQ ID NO: 22] (H-IVLSLDVPIGLLQILLEQARAESARERAK([AEEA-AEEA-γGlu-γGlu-C20 diacid])TNAEI[Nle]AEI-NH2) has an EC50 (hCRHR2; [1]) of 0.158 nM and an EC50 (hCRHR1; [2]) of 5010 nM.

With `CCCC[C@H](NC(=O)[C@@H](NC(=O)[C@H](CCC(=O)O)NC(=O)[C@H](C)NC(=O)[C@H](CC(N)=O)NC(=O)[C@@H](NC(=O)[C@H](CCCCNC(=O)COCCOCCNC(=O)COCCOCCNC(=O)CC[C@H](NC(=O)CC[C@H](NC(=O)CCCCCCCCCCCCCCCCCCC(=O)O)C(=O)O)C(=O)O)NC(=O)[C@H](C)NC(=O)[C@H](CCCNC(=N)N)NC(=O)[C@H](CCC(=O)O)NC(=O)[C@H](CCCNC(=N)N)NC(=O)[C@H](C)NC(=O)[C@H](C)NC(=O)[C@H](CCC(N)=O)NC(=O)[C@H](C)NC(=O)[C@H](CCCNC(=N)N)NC(=O)[C@H](C)NC(=O)[C@H](CCC(N)=O)NC(=O)[C@H](CCC(=O)O)NC(=O)[C@H](CC(C)C)NC(=O)[C@H](CC(C)C)NC(=O)[C@@H](NC(=O)[C@H](CCC(N)=O)NC(=O)[C@H](CC(C)C)NC(=O)[C@H](CC(C)C)NC(=O)CNC(=O)[C@@H](NC(=O)[C@@H]1CCCN1C(=O)[C@@H](NC(=O)[C@H](CC(=O)O)NC(=O)[C@H](CC(C)C)NC(=O)[C@H](CO)NC(=O)[C@H](CC(C)C)NC(=O)[C@@H](NC(=O)[C@@H](N)[C@@H](C)CC)C(C)C)C(C)C)[C@@H](C)CC)[C@@H](C)CC)[C@@H](C)O)[C@@H](C)CC)C(=O)N[C@@H](C)C(=O)N[C@@H](CCC(=O)O)C(=O)N[C@H](C(N)=O)C(C)C` [compound 49] (H-IVLSLDVPIGLLQILLEQARAQAARERAK([AEEA-AEEA-γGlu-γGlu-C20 diacid])TNAEI[Nle]AEV-NH2) the EC50 (hCRHR2; [3]) was 0.126 nM and the EC50 (hCRHR1; [4]) was 3160 nM.

`CC[C@H](C)[C@H](N)C(=O)N[C@H](C(=O)N[C@@H](CC(C)C)C(=O)N[C@@H](CO)C(=O)N[C@@H](CC(C)C)C(=O)N[C@@H](CC(=O)O)C(=O)N[C@H](C(=O)N1CCC[C@H]1C(=O)N[C@H](C(=O)NCC(=O)N[C@@H](CC(C)C)C(=O)N[C@@H](CC(C)C)C(=O)N[C@@H](CCC(N)=O)C(=O)N[C@H](C(=O)N[C@@H](CC(C)C)C(=O)N[C@@H](CC(C)C)C(=O)N[C@@H](CCC(=O)O)C(=O)N[C@@H](CCC(N)=O)C(=O)N[C@@H](C)C(=O)N[C@@H](CCCNC(=N)N)C(=O)N[C@@H](C)C(=O)N[C@@H](CCCNC(=N)N)C(=O)N[C@@H](C)C(=O)N[C@@H](C)C(=O)N[C@@H](CCCNC(=N)N)C(=O)N[C@@H](CCC(=O)O)C(=O)N[C@@H](CCC(=O)O)C(=O)N[C@@H](C)C(=O)N[C@@H](CCCCNC(=O)COCCOCCNC(=O)COCCOCCNC(=O)CC[C@H](NC(=O)CC[C@H](NC(=O)CCCCCCCCCCCCCCCCCCC(=O)O)C(=O)O)C(=O)O)C(=O)N[C@H](C(=O)N[C@@H](CC(N)=O)C(=O)N[C@@H](C)C(=O)N[C@@H](CCC(=O)O)C(=O)N[C@H](C(=O)N[C@@H](CC(C)C)C(=O)N[C@@H](C)C(=O)N[C@@H](CCC(=O)O)C(=O)N[C@H](C(N)=O)[C@@H](C)CC)[C@@H](C)CC)[C@@H](C)O)[C@@H](C)CC)[C@@H](C)CC)C(C)C)C(C)C` [compound 74] (H-IVLSLDVPIGLLQILLEQARARAAREEAK([AEEA-AEEA-γGlu-γGlu-C20 diacid])TNAEILAEI-NH2) was tested, and the EC50 (hCRHR2; [3]) was 2 nM and the EC50 (hCRHR1; [4]) was 158000 nM.
